Source: PubChem BioAssay AID2060485 (Molecular Pharmacology Branch, DTP, NCI, 2025)

Test system: A375 multi-cell spheroids with HUVEC/MSC, viability
Experiment: Anticancer human tumor A375 cell line growth inhibition [GQUAD];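 note: spheroids exposed to compounds for seven days before readout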
Conditions: for IC50: curve of first compound; for viability, T/C: stronger effect = lower value
Text: DNA G-quadruplex Stabilizer Agents in Combinations in Complex Spheroids
A high-throughput screen of multi-cell type tumor spheroids was designed to identify active combinations of DNA G-quadruplex stabilizer agents and targeted small molecules. Complex spheroids include a stromal component modeled by human endothelial cells (HUVEC) and fibroblasts modeled by human mesenchymal stem cells (MSCs). The concentration ranges selected for each drug and investigational agent were based upon clinically achievable concentrations if the clinical Cmax of the agent was known.
Compounds. The drugs and investigational agents: pidnarulex (CX-5461; NSC782164), APTO-253 (NSC789042), BRACO-19 (NSC847499), peposertib (NSC802822), ceralasertib (NSC780249), elimusertib (NSC800525), camonsertib (NSC841442), AZD-1390 (NSC803789), olaparib (NSC753686), talazoparib (NSC767125), ART-558 (NSC835418), sotorasib (NSC818433), MRTX-1133 (NSC836407), SN-38 (NSC673596), topotecan (NSC609699), etoposide (NSC141540), doxorubicin (NSC123127), gemcitabine (NSC613327), 5-fluorouracil (NSC19893), paclitaxel (NSC125973), vemurafenib (NSC761431), panobinostat (NSC761190), R-306465 (JNJ-16241199; NSC773264), adavosertib (NSC754352), TP-3654 (NSC805149), carboplatin (NSC241240), KSQ-4279 (NSC840948), and staurosporine (NSC755774) were obtained from the National Cancer Institute (NCI) Developmental Therapeutics Program Chemical Repository (34). The FDA-approved anticancer drug set is available from the NCI Developmental Therapeutics Program. […] The stock solutions were prepared in dimethyl sulfoxide (DMSO, Sigma-Aldrich, St. Louis, MO, cat. D2650) at 800-fold the tested concentration and stored at -70 degrees C prior to their use. All drugs and investigational agents were tested over a range starting from a high concentration at or near the clinical Cmax and decreasing in half-log increments. If the clinical Cmax for an agent had not been determined, the highest concentration tested was 10 microM.
2.3 Cell Culture. All cells were maintained in an incubator at 37 degrees C and 5% CO2 with 95% humidity. The PDC lines were cultured according to standard operating procedures established by the NCI PDMR. All PDCs were thawed and cultured in Matrigel-coated flasks prepared with a working solution of 1X Ham's F-12 nutrient mix, without supplementation (Invitrogen, cat. 11765054), 100 U/mL penicillin-streptomycin (Invitrogen, cat. 15140122), and 2.5% Matrigel (Corning Inc., cat. 354248) for the first three passages. The 857933-349-R-J2-PDC line was cultured in 6C/Colon 1B media, which includes advanced DMEM/F-12 (Thermo Fisher Scientific, cat. 12634028), 10 mM HEPES (Thermo Fisher Scientific, cat. 15630080), 1X GlutaMAX supplement (Thermo Fisher Scientific, cat. 35050061), 0.1 mg/mL primocin (InvivoGen, cat. ant-pm-2), 10% defined fetal bovine serum, heat inactivated (HyClone Laboratories Inc., cat. SH30070.03HI), 50% L-WRN conditioned media (ATCC, cat. CRL-3276), 1.25 mM N-Acetyl-L-cysteine (Sigma-Aldrich, cat. A9165), 10 mM nicotinamide (Sigma-Aldrich, cat. N0636), 1X B-27 supplement (Thermo Fisher Scientific, cat. 17504044), 1X N-2 supplement (Thermo Fisher Scientific, cat. 17502048), 10 microM Y-27632 dihydrochloride (Tocris Bioscience, cat. 1254), and 50 ng/mL human EGF recombinant protein (Thermo Fisher Scientific, cat. PHG0311). The 485176-168-R4-J1-PDC line was cultured in Panc media, which includes all 6C/Colon 1B media components plus 100 ng/mL human FGF-10 (Thermo Fisher Scientific, cat. 100-26), 500 nM SB-431542 (Selleckchem, cat. S1067), and gastrin (Tocris, cat. 3006).
[…]

[1] = second compound 0.0316 µM, first compound 0.0316 µM
[2] = second compound 0.0316 µM, first compound 0.316 µM
[3] = second compound 0.1 µM, first compound 0.0316 µM
[4] = second compound 0.1 µM, first compound 0.316 µM
[5] = second compound 0.316 µM, first compound 0.0316 µM
[6] = second compound 0.316 µM, first compound 0.316 µM
[7] = second compound 1 µM, first compound 0.0316 µM
[8] = second compound 1 µM, first compound 0.316 µM
[9] = second compound 3.16 µM, first compound 0.0316 µM
[10] = second compound 3.16 µM, first compound 0.316 µM
[11] = second compound 10 µM, first compound 0.0316 µM
[12] = second compound 10 µM, first compound 0.316 µM

For `CC1COCCN1c1cc(C2(O)CC3CCC(C2)O3)c2cnn(-c3ccn[nH]3)c2n1` (centres undefined) + Cc1cnc(CNC(=O)c2c(=O)c3ccc(N4CCCN(C)CC4)nc3n3c2sc2ccccc23)cn1, the IC50 (second compound 0.0316 µM) was 127 nM, the IC50 (second compound 0.1 µM) was 57.5 nM and the IC50 (second compound 0.316 µM) was < 31.6 nM. For the same compound, the IC50 (second compound 1 µM) was < 31.6 nM, the IC50 (second compound 3.16 µM) was < 31.6 nM and the IC50 (second compound 10 µM) was < 31.6 nM. It also gave a viability, T/C [1] of 86.1%, a viability, T/C (second compound 0.0316 µM, first compound 0.1 µM) of 51.7% and a viability, T/C [2] of 38.3%. For the same compound, the viability, T/C (second compound 0.0316 µM, first compound 1 µM) was 15.7%, the viability, T/C (second compound 0.0316 µM, first compound 3.16 µM) was 10.2% and the viability, T/C (second compound 0.0316 µM, first compound 10 µM) was 7.77%. For the same compound, the viability, T/C [3] was 57%, the viability, T/C (second compound 0.1 µM, first compound 0.1 µM) was 42.5% and the viability, T/C [4] was 31.2%. The viability, T/C (second compound 0.1 µM, first compound 1 µM) was 15.2%, the viability, T/C (second compound 0.1 µM, first compound 3.16 µM) was 11% and the viability, T/C (second compound 0.1 µM, first compound 10 µM) was 7.11%. For the same compound, the viability, T/C [5] was 38%, the viability, T/C (second compound 0.316 µM, first compound 0.1 µM) was 29.7% and the viability, T/C [6] was 28.9%. The viability, T/C (second compound 0.316 µM, first compound 1 µM) was 19.1%, the viability, T/C (second compound 0.316 µM, first compound 3.16 µM) was 10.3% and the viability, T/C (second compound 0.316 µM, first compound 10 µM) was 7.26%. It also gave a viability, T/C [7] of 40.9%, a viability, T/C (second compound 1 µM, first compound 0.1 µM) of 32% and a viability, T/C [8] of 27.3%. The viability, T/C (second compound 1 µM, first compound 1 µM) was 14.4%, the viability, T/C (second compound 1 µM, first compound 3.16 µM) was 10.5% and the viability, T/C (second compound 1 µM, first compound 10 µM) was 7.81%. For the same compound, the viability, T/C [9] was 31.9%, the viability, T/C (second compound 3.16 µM, first compound 0.1 µM) was 27.4% and the viability, T/C [10] was 23.4%. The viability, T/C (second compound 3.16 µM, first compound 1 µM) was 14.3%, the viability, T/C (second compound 3.16 µM, first compound 3.16 µM) was 10.1% and the viability, T/C (second compound 3.16 µM, first compound 10 µM) was 5.41%. It also gave a viability, T/C [11] of 24.7%, a viability, T/C (second compound 10 µM, first compound 0.1 µM) of 22.5% and a viability, T/C [12] of 21.8%. It also gave a viability, T/C (second compound 10 µM, first compound 1 µM) of 13.7%, a viability, T/C (second compound 10 µM, first compound 3.16 µM) of 9.6% and a viability, T/C (second compound 10 µM, first compound 10 µM) of 4.53%.

With `CC[C@@]1(O)C(=O)OCc2c1cc1n(c2=O)Cc2cc3c(CN(C)C)c(O)ccc3nc2-1` + Cc1cnc(CNC(=O)c2c(=O)c3ccc(N4CCCN(C)CC4)nc3n3c2sc2ccccc23)cn1 the IC50 (second compound 0.0316 µM) was 28.5 nM, the IC50 (second compound 0.1 µM) was 16 nM and the IC50 (second compound 0.316 µM) was < 0.999 nM. The IC50 (second compound 1 µM) was < 0.999 nM, the IC50 (second compound 3.16 µM) was < 0.999 nM and the IC50 (second compound 10 µM) was < 0.999 nM. For the same compound, the viability, T/C (second compound 0.0316 µM, first compound 0.000999 µM) was 114%, the viability, T/C (second compound 0.0316 µM, first compound 0.00316 µM) was 103% and the viability, T/C (second compound 0.0316 µM, first compound 0.00999 µM) was 107%. For the same compound, the viability, T/C [1] was 44.1%, the viability, T/C (second compound 0.0316 µM, first compound 0.0999 µM) was 17.8% and the viability, T/C [2] was 11.3%. The viability, T/C (second compound 0.1 µM, first compound 0.000999 µM) was 76.2%, the viability, T/C (second compound 0.1 µM, first compound 0.00316 µM) was 64.3% and the viability, T/C (second compound 0.1 µM, first compound 0.00999 µM) was 64.3%. It also gave a viability, T/C [3] of 31.4%, a viability, T/C (second compound 0.1 µM, first compound 0.0999 µM) of 20.5% and a viability, T/C [4] of 11.8%. The viability, T/C (second compound 0.316 µM, first compound 0.000999 µM) was 48.6%, the viability, T/C (second compound 0.316 µM, first compound 0.00316 µM) was 42.5% and the viability, T/C (second compound 0.316 µM, first compound 0.00999 µM) was 45.3%. It also gave a viability, T/C [5] of 27.6%, a viability, T/C (second compound 0.316 µM, first compound 0.0999 µM) of 17% and a viability, T/C [6] of 13.9%. The viability, T/C (second compound 1 µM, first compound 0.000999 µM) was 39.8%, the viability, T/C (second compound 1 µM, first compound 0.00316 µM) was 38.9% and the viability, T/C (second compound 1 µM, first compound 0.00999 µM) was 29.9%. It also gave a viability, T/C [7] of 29.1%, a viability, T/C (second compound 1 µM, first compound 0.0999 µM) of 19.1% and a viability, T/C [8] of 13%. For the same compound, the viability, T/C (second compound 3.16 µM, first compound 0.000999 µM) was 30.5%, the viability, T/C (second compound 3.16 µM, first compound 0.00316 µM) was 29.8% and the viability, T/C (second compound 3.16 µM, first compound 0.00999 µM) was 30.3%. It also gave a viability, T/C [9] of 25.4%, a viability, T/C (second compound 3.16 µM, first compound 0.0999 µM) of 17.6% and a viability, T/C [10] of 14.7%. The viability, T/C (second compound 10 µM, first compound 0.000999 µM) was 23.6%, the viability, T/C (second compound 10 µM, first compound 0.00316 µM) was 30.3% and the viability, T/C (second compound 10 µM, first compound 0.00999 µM) was 30.8%. The viability, T/C [11] was 23.9%, the viability, T/C (second compound 10 µM, first compound 0.0999 µM) was 18.7% and the viability, T/C [12] was 15.6%.
